The values that follow come from PubChem BioAssay (NCI).

Several values for one entry are separate records, joined by “and”; a condition that tells them apart may be missing. Identical values can stand only once.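 Each compound was tested at five concentrations against cells in 96-well plates for 48 hours. The concentration for 50% growth inhibition is given as GI50. The concentration for full growth arrest is given as TGI.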

Among the test systems are 786-0 renal; CAKI-1 renal; COLO 205 colon; HOP-92 NSCLC; NCI-H460 lung; NCI/ADR-RES ovarian; OVCAR-4 ovarian; OVCAR-5 ovarian; SNB-75 CNS; MCF7 breast.
Common to all, as to test: inhibition of tumour cell growth, NCI panel, 48 h

Consider `COC/C=C\[C@@]1(O)CCCC[C@@H]1CC(OC)OC`, for which the TGI in the assay with 786-0 renal was above 100 µM; in the assay on CAKI-1 renal, above 100 µM; in the assay with COLO 205 colon it was above 100 µM; in the assay with HOP-92 NSCLC it was above 100 µM; in the assay with NCI-H460 lung, above 90 µM; in the assay with NCI/ADR-RES ovarian it was above 100 µM. Also, the TGI with OVCAR-4 ovarian is above 76.4 µM; in the assay with OVCAR-5 ovarian, above 100 µM; in the assay on SNB-75 CNS, above 100 µM.

With `N#Cc1c(-c2ccc(Cl)cc2)c(C#N)c(=O)n(NS(=O)(=O)c2ccccc2)c1-c1ccccc1`, the TGI in the assay on 786-0 renal, in the assay with CAKI-1 renal, in the assay with COLO 205 colon, in the assay on HOP-92 NSCLC, with MCF7 breast and in the assay on NCI-H460 lung was above 25 µM throughout. Besides, the TGI with OVCAR-4 ovarian and in the assay with OVCAR-5 ovarian was above 25 µM each time.

In the case of `COc1cc(CC2c3cc(OC)c(OC)cc3CCN2C)c(Oc2cc3c(cc2OC)-c2c(OC)c(OC)c(OC)c4c2C(C3)N(C)CC4)cc1OC` (stereo unspecified), the TGI with 786-0 renal was determined as 21.5 µM; with CAKI-1 renal, 32.1 µM; in the assay on COLO 205 colon it was 20.9 µM; in the assay with HOP-92 NSCLC it was 20.9 µM; with NCI-H460 lung, 32.7 µM; in the assay on OVCAR-4 ovarian, 33.1 µM. For the same molecule, the TGI with OVCAR-5 ovarian stood at 30.6 µM; in the assay with SNB-75 CNS it was 25 µM.

On to `CC(C)(C)/C(O)=C\c1nc2cc(C(F)(F)F)ccc2[nH]c1=O`, for which the TGI in the assay with 786-0 renal, with CAKI-1 renal, in the assay on COLO 205 colon, in the assay with HOP-92 NSCLC, in the assay on NCI/ADR-RES ovarian and in the assay on OVCAR-4 ovarian was above 100 µM each time. The TGI in the assay on OVCAR-5 ovarian and in the assay on SNB-75 CNS was above 100 µM throughout.

As to `O=C(/C=C/c1ccc(O)c(O)c1)OCCOC(=O)/C=C/c1ccc(O)c(O)c1`, the TGI in the assay with 786-0 renal is above 100 µM; with CAKI-1 renal it was above 100 µM; in the assay with COLO 205 colon it was 42.3 µM; in the assay on HOP-92 NSCLC it was above 100 µM; with MCF7 breast, 90.9 µM; in the assay on NCI-H460 lung, above 100 µM. The figures for the TGI in the assay with NCI/ADR-RES ovarian, in the assay on OVCAR-4 ovarian and with OVCAR-5 ovarian were above 100 µM, above 100 µM and 65.8 µM, respectively.

Take `CC(C)[Si]1(C(C)C)OCC2OC(n3ccc(=O)[nH]c3=O)C(O)(CO)C2O[Si](C(C)C)(C(C)C)O1` (stereo unspecified): the TGI turned out to be 29.3 µM with 786-0 renal; 29.6 µM in the assay on CAKI-1 renal; 31.7 µM with COLO 205 colon; 22.6 µM with HOP-92 NSCLC; 29.2 µM in the assay with MCF7 breast; 30.1 µM in the assay on NCI/ADR-RES ovarian. The figures for the TGI with OVCAR-4 ovarian and with OVCAR-5 ovarian were 26.9 µM and 29.5 µM, respectively.

Turning to `CSCCCCCCCCCCOc1ccc(C=C2C(=C(C#N)C#N)c3ccccc3C2=C(C#N)C#N)cc1`, the TGI in the assay with 786-0 renal was 37.4 µM; in the assay on CAKI-1 renal, 32.3 µM; in the assay with HOP-92 NSCLC, 26.9 µM; in the assay on MCF7 breast it was 32.3 µM; with NCI-H460 lung it was 32.2 µM; with NCI/ADR-RES ovarian it was 75.7 µM. Besides, the TGI amounted to 41.3 µM in the assay with OVCAR-4 ovarian and 30.2 µM with OVCAR-5 ovarian.

Regarding `CCN(CC)CCNc1ccc(C)c2sc3ccc(O)cc3c(=O)c12`, the TGI with 786-0 renal stood at 2.01 µM; in the assay on CAKI-1 renal it was 21.8 µM; in the assay with COLO 205 colon, 3.27 µM; in the assay on HOP-92 NSCLC, 7.17 µM; in the assay on NCI-H460 lung, 1.37 µM; with OVCAR-4 ovarian, 6.12 µM. For the same molecule, the TGI stood at 9.3 µM in the assay on OVCAR-5 ovarian and 4.3 µM with SNB-75 CNS.

Take `CN1OC(=O)N(C)C1c1ccccc1` (stereo unspecified): the TGI in the assay with COLO 205 colon, in the assay on HOP-92 NSCLC, in the assay on MCF7 breast, in the assay on NCI-H460 lung, in the assay with NCI/ADR-RES ovarian and in the assay with OVCAR-4 ovarian was above 100 µM throughout. Further, the TGI with OVCAR-5 ovarian and in the assay with SNB-75 CNS was above 100 µM throughout.

Regarding `CC(=O)c1cccc(NC2C(N)C(NC(=O)N(C)C)(C(C)O)C(C)(O)C2(O)COC(=O)c2c(C)cccc2O)c1` (stereo unspecified), the TGI in the assay with 786-0 renal was 0.0146 µM; with CAKI-1 renal it was 0.0235 µM; in the assay with MCF7 breast it was 1.13 µM; with NCI/ADR-RES ovarian it was 0.591 µM; in the assay with OVCAR-5 ovarian, 0.0457 µM and 0.186 µM. In the assay on SNB-75 CNS, the GI50 is below 0.001 µM.

For the molecule `C=C1C(=O)OC2/C=C(\C)C(O)/C=C\C(C)(O)CC(OC(=O)/C(C)=C/C)C12` (stereo unspecified), the TGI in the assay with 786-0 renal is 38 µM; in the assay with CAKI-1 renal, above 66.7 µM; in the assay on COLO 205 colon it was 28.9 µM; in the assay on HOP-92 NSCLC, 77.5 µM; in the assay with NCI-H460 lung, above 100 µM; in the assay on OVCAR-4 ovarian, above 100 µM. In addition, the TGI in the assay on OVCAR-5 ovarian and in the assay with SNB-75 CNS was above 100 µM throughout.

Turning to `S=C1C=C(c2ccccc2)Sc2ccccc2N1`, the TGI with 786-0 renal, in the assay on CAKI-1 renal, in the assay with COLO 205 colon, in the assay with MCF7 breast, with NCI-H460 lung and in the assay on NCI/ADR-RES ovarian was above 100 µM throughout. The TGI with OVCAR-4 ovarian, in the assay with OVCAR-5 ovarian and with SNB-75 CNS was above 100 µM throughout.

Turning to `Cc1n[nH]c(=O)n1N=C(c1ccccc1)c1ccccc1`, the TGI with 786-0 renal, in the assay with CAKI-1 renal, in the assay with COLO 205 colon, in the assay with HOP-92 NSCLC, in the assay with MCF7 breast and with NCI-H460 lung was above 100 µM in each case. In addition, the TGI in the assay on NCI/ADR-RES ovarian, with OVCAR-4 ovarian and in the assay with OVCAR-5 ovarian was above 100 µM throughout.

Turning to `C[C@@H]1C(O)CC[C@H](C)C12CC=CC2=O` (stereo partly specified), the TGI in the assay with 786-0 renal, with CAKI-1 renal, in the assay with COLO 205 colon, with HOP-92 NSCLC, in the assay on MCF7 breast and in the assay on NCI-H460 lung was above 100 µM each time. In addition, the TGI with NCI/ADR-RES ovarian, in the assay with OVCAR-4 ovarian and with OVCAR-5 ovarian was above 100 µM in each case.

Turning to `c1ccc(-c2cc(-c3cc(-c4ccccc4)n(-c4ccccc4)n3)nn2-c2ccccc2)cc1`, the TGI with 786-0 renal, in the assay on CAKI-1 renal, in the assay on COLO 205 colon, in the assay with MCF7 breast, in the assay on NCI-H460 lung and with NCI/ADR-RES ovarian was above 100 µM throughout. Besides, the TGI in the assay on OVCAR-4 ovarian, with OVCAR-5 ovarian and in the assay with SNB-75 CNS was above 100 µM each time.

In the case of `Cc1nc(-c2nc([N+](=O)[O-])c([N+](=O)[O-])[nH]2)cs1`, the TGI in the assay on CAKI-1 renal, in the assay on COLO 205 colon, in the assay on HOP-92 NSCLC, in the assay with NCI-H460 lung, with OVCAR-4 ovarian and in the assay on OVCAR-5 ovarian was above 100 µM throughout. In addition, the TGI in the assay with SNB-75 CNS is above 100 µM.
